In EPA's ToxValDB 9.5:
Converted amounts (≈) assume the structure as drawn.

Assays:
Aphidius rhopalosiphi [1] = details: not reported; mortality
Tagia sp. = details: for NOEC: chronic/long-term, duration: 56 days
Oncorhynchus mykiss = details: for LC50: acute, duration: 96 hours, mortality
Typhlodromus pyri [2] = details: not reported; mortality
Canidae = details: for NOAEL: oral
Typhlodromus pyri [3] = assay: LR50; higher = less toxic; details: not reported; mortality
Chalcophaps sp. = details: subchronic; oral; feed; clinical chemistry
Pleurozium sp. = details: acute; duration: 72 hours; growth
Sus scrofa = details: short-term; duration: 10 days; Not specified; no effects
Equus caballus = details: short-term; duration: 14 days; oral; feed; M/F; no effects
Triticum sp. = details: not reported; no effects
Sinapis alba = details: not reported; no effects
Bibionidae = details: chronic/long-term; duration: 28 days; other
Daphnia magna = details: chronic/long-term, duration: 21 days
[4] = test system: Vigna radiata var. radiata; details: not reported; no effects
Coturnix coturnix = details: repeat dose other; food consumption
Perdix sp. = details: not reported; mortality
Anser anser = details: not reported; oral; feed; mortality
Neomysis kadiakensis = details: acute; duration: 96 hours; mortality
Apis mellifera = details: acute, mortality
Coturnix japonica = details: acute; oral; mortality
Macaca mulatta = details: chronic; duration: 1 years; oral; gavage; M/F; clinical signs
Homo sapiens = details: clinical; oral; M; clinical signs
Anatidae = details: subchronic; duration: 7 weeks; body weight
Ictalurus punctatus = details: not reported; mortality
Bovidae = details: subchronic; duration: 30 days; oral; gavage; histopathology: neoplastic
Aphidius rhopalosiphi [5] = assay: LR50; higher = less toxic; details: not reported; mortality
[6] = subchronic, duration: 5 weeks, clinical signs

CC1=CC1 [1-Methylcyclopropene]
LEL (Aphidius rhopalosiphi [1]): 10 mg/kg | LD50 (Tagia sp.; acute, mortality): > 4.41 ppm | LC50 (Oncorhynchus mykiss): > 0.966 mg/L | LEL (Typhlodromus pyri [2]): 10 mg/kg | LD50 (Colinus virginianus; acute, oral, mortality): > 81 mg/kg-day | NOAEL (Canidae; subchronic, duration: 90 days, Dog Other, hematological): 22.4 mg/kg-day | NOAEL (reproduction developmental): 22.4 mg/kg-day | LC50 (Rattus norvegicus; acute, inhalation, mortality): > 2.5 mg/L | LD50 (Rattus norvegicus; acute, oral, mortality): > 235 mg/kg-day | NOAEL (Rattus norvegicus; reproduction developmental): 543 mg/kg-day | NOAEL (Rattus norvegicus; reproduction developmental, inhalation): 6.5 mg/kg-day | NOAEL (Rattus norvegicus; reproduction developmental, oral, diet, body weight): 3.8 mg/kg-day | NOAEL (Rattus norvegicus; short-term, duration: 3 weeks, inhalation, M): 68 mg/kg-day | NOAEL (Rattus norvegicus; subchronic, duration: 90 days, inhalation, M, hematological): 9 mg/kg-day | LR50 (Typhlodromus pyri [3]): > 10 ppm

Clc1ccc(C(c2ccc(Cl)cc2)C(Cl)(Cl)Cl)cc1 [DDT]
LEL (Chalcophaps sp.): 0.6 mg/kg-day | NOAEL (Anas platyrhynchos; subchronic, mortality): 0.6 mg/kg-day

CCCCCCCCCCOc1cc2c(=O)c(C(=O)OCC)c[nH]c2cc1OCC [Decoquinate]
NOEC (Pleurozium sp.): 73 µg/L | NOEC (Tagia sp.; no effects): > 1000 mg/kg | NOEC (Tagia sp.; reproduction): 1000 mg/kg | LEL (Sus scrofa): 80 mg/kg-day | LEL (Equus caballus): 6.25 mg/kg-day | NOEC (Triticum sp.): ≤ 100 mg/kg | LEL (Gallus gallus; short-term, duration: 21 days, no effects): ≤ 150 mg/L | LEL (Gallus gallus; subchronic, duration: 35 days, oral, diet, Chicken, no effects): 400 mg/kg-day | LEL (Gallus gallus; subchronic, duration: 42 days, oral, diet, no effects): 400 mg/kg-day | NOEL (Oryctolagus sp.; developmental, duration: 11 days, oral, capsule, F, New Zealand, development): 60 mg/kg-day | NOAEL (Oryctolagus sp.; reproduction developmental, F, mortality): 60 mg/kg-day | NOEC (Sinapis alba): ≤ 100 mg/kg | NOEC (Bibionidae): 16.3 mg/kg | NOEC (Daphnia magna; no effects): 35.2 µg/L | NOEC [4]: ≤ 100 mg/kg | NOEL (Canidae; subchronic, duration: 12 weeks, Beagle, behavior): 15 mg/kg-day | NOEC (subchronic, duration: 56 days, other): ≥ 9.2 mg/kg-day | NOEL (Rattus norvegicus; developmental, duration: 11 days, oral, gavage, F, Sprague-Dawley, development): 100 mg/kg-day

Br.O=C(C[C@H]1NCCC[C@@H]1O)Cn1cnc2cc(Br)c(Cl)cc2c1=O [Halofuginone hydrobromide]
LEL (Coturnix coturnix): 3 mg/kg-day | LEL (Meleagris sp.; chronic/long-term, duration: 20 weeks, oral, feed, body weight): 9 mg/kg | LEL (Gallus gallus; subchronic, duration: 8 weeks, oral, diet, hematological): 6 mg/kg-day | LEL (Perdix sp.): 3 mg/kg | LEL (Anser anser): 3 mg/kg | LEL (Oryctolagus sp.; repeat dose other, food consumption): 3 mg/kg-day | NOEL (Oryctolagus sp.; reproduction developmental, body weight): 0.03 mg/kg-day

O=[N+]([O-])/N=C1\NCCN1Cc1ccc(Cl)nc1 [Imidacloprid]
LD50 (Anas platyrhynchos; acute, oral, unspecified): 66 mg/kg-day | LC50 (Oncorhynchus mykiss): > 83 mg/L | NOEC (Oncorhynchus mykiss; chronic/long-term, duration: 91 days, time to hatch): 9.02 mg/L | LC50 (Neomysis kadiakensis): 34.1 µg/L (≈ 0.133 µM) | NOEC (Daphnia magna; reproduction): 1800 µg/L | NOAEL (Colinus virginianus; reproduction developmental): 9.3 mg/kg-day | NOEL (Colinus virginianus; short-term, oral, diet): 29.4 mg/kg-day | LD50 (Apis mellifera; dermal): 0.081 µg/piece | NOEC (Apis mellifera; dermal): < 2.5 µg/piece | LD50 (Apis mellifera; duration: 48 hours, dermal): 0.081 µg/piece | LD50 (Apis mellifera; duration: 48 hours, oral, unspecified): 0.0037 µg/piece | LD50 (Apis mellifera; duration: 120 hours, dermal): 0.0251 µg/piece | LD50 (Apis mellifera; oral, unspecified): 0.0037 µg/piece | NOAEL (Canidae; subchronic, duration: 90 days, Dog Other, clinical signs): 7.8 mg/kg-day | LD50 (Rattus norvegicus; acute): 256 mg/kg-day | NOAEL (Rattus norvegicus; chronic): 17 mg/kg-day | NOAEL (Rattus norvegicus; chronic, duration: 2 years, M, histopathology: nonneoplastic): 5.7 mg/kg-day | NOAEL (Rattus norvegicus; subchronic, duration: 90 days, oral, histopathology: nonneoplastic): 9.3 mg/kg-day

CNC(=O)Oc1cc(C)c(SC)c(C)c1 [Methiocarb]
LC50 (Anas platyrhynchos; short-term, oral, feed, mortality): 1070 mg/kg | LD50 (Coturnix japonica): 5 mg/kg | NOEC (Colinus virginianus; reproduction developmental, reproduction): 4.51 mg/kg-day

CC(CCc1ccc(O)cc1)NCC(O)c1ccc(O)cc1.Cl (stereo not drawn) [Ractopamine hydrochloride]
NOAEL (Macaca mulatta): 0.125 mg/kg-day | NOEL (Homo sapiens): 0.067 mg/kg-day | NOAEL (Canidae; acute, M/F, Beagle, clinical signs): 0.002 mg/kg-day

CC(=O)OC[C@]12C[C@H](OC(=O)CC(C)C)C(C)=C[C@H]1O[C@H]1[C@H](O)[C@H](OC(C)=O)[C@@]2(C)[C@]12CO2 [T-2 toxin]
LOAEL (Meleagris sp.; [6]): 48 µg/kg-day | LOAEL (Gallus gallus; short-term, duration: 24 days, oral, diet, F, reproduction): 0.12 mg/kg-day | LOAEL (Gallus gallus; [6]): 0.04 mg/kg-day | LOAEL (Anatidae): 40 µg/kg-day | NOAEL (Ictalurus punctatus): 13 µg/kg-day | NOAEL (Oryctolagus sp.; subchronic, oral, diet, F, clinical chemistry): 0.1 mg/kg-day | LOAEL (Bovidae): 0.3 mg/kg-day

COP(=O)(OC)C(O)C(Cl)(Cl)Cl (stereo not drawn) [Trichlorfon]
LC50 (Tagia sp.; acute, duration: 14 days, mortality): 140 mg/kg | LEL (Typhlodromus pyri [2]): 1200 g/ha | LD50 (Rattus norvegicus; acute, oral, F, mortality): 212 mg/kg-day | NOAEL (Rattus norvegicus; chronic, oral, M): 13.2 mg/kg-day | LR50 (Aphidius rhopalosiphi [5]): 0.519 g/ha
